Values quoted from earlier work in patent US7286970B2, “Computational model, method, and system for kinetically-tailoring multi-drug chemotherapy for individuals” (The Regents of the University of California, priority 2002, dated 2007).
Marks after values point to notes of the source that are not given here.

Details: for Plasma Half-life: in vivo

Row | Compound | half-life | Plasma Half-life
1 | O=P1(N(CCCl)CCCl)NCCCO1 (centres unmarked) [Cyclophosphamide, cyclophosphamide] | – | 4^d h
2 | CN(Cc1cnc2nc(N)nc(N)c2n1)c1ccc(C(=O)N[C@@H](CCC(=O)O)C(=O)O)cc1 [Methotrexate, methotrexate] | – | 8^d h
3 | CC/C(=C(\c1ccccc1)c1ccc(OCCN(C)C)cc1)c1ccccc1 [Tamoxifen, tamoxifen] | – | 10^e h

Next, values leading:

Row | half-life | Plasma Half-life | Compound
4 | about 15 min | – | O=c1[nH]cc(F)c(=O)[nH]1 [5-Fluorouracil, 5-fluorouracil]
5 | – | 25^d h | COc1cccc2c1C(=O)c1c(O)c3c(c(O)c1C2=O)C[C@@](O)(C(=O)CO)C[C@@H]3O[C@H]1C[C@H](N)[C@H](O)[C@H](C)O1 [Doxorubicin, doxorubicin]
